Source: patent publication US20070004620A1, “Fp receptor antagonists or pgf2 alpha antagonists for treating pathological conditions of the uterus” (priority 2002, published 2007)
Entries after “also recorded” stand apart in the source; their conditions may differ.

Key:
PGF2α receptor = details: cited from earlier work
human endometrium = assay: Total inositol phosphate (InsP) assay in human endometrium tissue; format: cell-based
Method: (§1) PGF2α stimulation of total InsP production was as described (21). Briefly, tissue samples or Ishikawa cells were incubated with inositol free DMEM containing 1% dialyzed heat-inactivated FCS and 0.5 μCi/well myo-[^3H]inositol (Amersham Pharmacia Biotech) for 48 hours. Medium was removed, and cells washed with 1 ml buffer (140 mM NaCl, 20 mM HEPES, 4 mM KCl, 8 mM glucose, 1 mM MgCl2, 1 mM CaCl2, 1 mg/ml bovine serum albumin) containing 10 mM LiCl. Cells were then incubated for 1 hour at 37° C. in 1 ml buffer with or without inhibitors. Following incubation agonist was added at the required concentration and cells incubated for 1 hour. Reactions were terminated by the removal of agonist and the addition of 500 μl ice cold 10 mM formic acid, which was incubated for 30 minutes at 4° C. Total [^3H] inositol phosphates was separated from the formic acid cell extracts on AG 1-X8 anion exchange resin (Bio-Rad) and eluted with a 1 M ammonium formate/0.1 M formic acid solution. The associated radioactivity was determined by liquid scintillation counting and plotted relative to protein concentrations determined using the modified Lowry method.

Ishikawa cells [1] = assay: Total inositol phosphate (InsP) assay in Ishikawa cells; format: cell-based, human; details: PGF2α 100 nM
Method: as §1

Ishikawa cells [2] = assay: ERK phosphorylation in Ishikawa cells; format: cell-based, human; details: 100 nM, treatment for 10 min
Method: ERK phosphorylation in Ishikawa cells. PGF2α 100 nM was incubated for 10 and 30 min. U73122 2 μM was pre-incubated for 60 min before treatment with PGF2α.

HCT-8 = HCT-8 human colon adenocarcinoma cell line; cited from earlier work
HT-29 = HT-29 human colon adenocarcinoma cell line; cited from earlier work
TP = molecular target: T1, TP (Homo sapiens, UniProt P21731); details: 10 μM; cited from earlier work
T1 sequence (P21731 1-343): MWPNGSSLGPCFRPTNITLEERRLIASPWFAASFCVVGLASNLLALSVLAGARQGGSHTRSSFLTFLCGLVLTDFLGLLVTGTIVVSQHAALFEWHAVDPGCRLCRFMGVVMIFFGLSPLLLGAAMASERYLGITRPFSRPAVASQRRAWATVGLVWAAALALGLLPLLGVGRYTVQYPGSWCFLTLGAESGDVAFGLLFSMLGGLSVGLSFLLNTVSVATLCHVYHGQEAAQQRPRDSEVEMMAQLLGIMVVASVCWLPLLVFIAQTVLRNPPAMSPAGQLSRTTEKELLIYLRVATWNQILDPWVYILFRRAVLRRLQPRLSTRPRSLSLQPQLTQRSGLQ

DP = molecular target: T2, DP (Homo sapiens, UniProt Q13258); details: 10 μM; cited from earlier work
T2 sequence (Q13258 1-359): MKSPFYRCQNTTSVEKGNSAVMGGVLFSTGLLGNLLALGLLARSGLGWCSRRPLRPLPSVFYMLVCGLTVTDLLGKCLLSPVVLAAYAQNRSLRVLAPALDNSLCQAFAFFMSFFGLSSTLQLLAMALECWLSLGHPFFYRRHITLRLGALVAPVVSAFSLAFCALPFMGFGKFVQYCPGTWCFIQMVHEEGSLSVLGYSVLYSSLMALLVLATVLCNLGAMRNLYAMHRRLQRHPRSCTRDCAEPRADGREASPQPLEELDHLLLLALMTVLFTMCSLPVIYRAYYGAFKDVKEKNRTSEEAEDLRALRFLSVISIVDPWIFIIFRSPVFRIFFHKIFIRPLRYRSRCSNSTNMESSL

EP2 = EP2 (Homo sapiens, UniProt P43116); details: 10 μM; cited from earlier work
EP4 = EP4 (Homo sapiens, UniProt P35408); details: 10 μM; cited from earlier work
Ishikawa cells [3] = assay: Proliferation assay (BrdU incorporation ELISA) in Ishikawa cells; format: cell-based, human; details: U73122 2μM, no PGF2α
Method: Proliferation of Ishikawa cells was determined using a BrdU incorporation ELISA (Roche Diagnostics GmbH, Mannheim, Germany). Briefly, Ishikawa cells were seeded at 5×10^3 cells per well in a 96-well plate and allowed to adhere overnight. Cells were next starved for 24 hr with indomethacin 1.5 μg/ml before 24 h PGF2α treatment (1 nM-1 μM) in serum-free medium containing indomethacin. Inhibitors were added to cells for 60 min before PGF2α with the control well receiving the same concentration of vehicle. Following 24 h treatment, cells were labelled with BrdU for 4 h, then fixed and assayed for BrdU incorporation using standard immunohistochemical techniques. Results were plotted as percentages of untreated cells.

Sequence of EP2 (P43116 whole entry): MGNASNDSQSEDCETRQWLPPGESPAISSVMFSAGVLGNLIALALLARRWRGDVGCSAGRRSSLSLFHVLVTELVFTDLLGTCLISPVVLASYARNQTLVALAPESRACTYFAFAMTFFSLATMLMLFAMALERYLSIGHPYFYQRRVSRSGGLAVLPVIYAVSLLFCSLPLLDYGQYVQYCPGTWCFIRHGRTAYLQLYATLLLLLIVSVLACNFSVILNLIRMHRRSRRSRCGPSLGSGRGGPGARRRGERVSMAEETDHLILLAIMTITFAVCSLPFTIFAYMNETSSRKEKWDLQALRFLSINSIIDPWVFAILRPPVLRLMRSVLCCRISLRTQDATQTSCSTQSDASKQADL
Sequence of EP4 (P35408 whole entry): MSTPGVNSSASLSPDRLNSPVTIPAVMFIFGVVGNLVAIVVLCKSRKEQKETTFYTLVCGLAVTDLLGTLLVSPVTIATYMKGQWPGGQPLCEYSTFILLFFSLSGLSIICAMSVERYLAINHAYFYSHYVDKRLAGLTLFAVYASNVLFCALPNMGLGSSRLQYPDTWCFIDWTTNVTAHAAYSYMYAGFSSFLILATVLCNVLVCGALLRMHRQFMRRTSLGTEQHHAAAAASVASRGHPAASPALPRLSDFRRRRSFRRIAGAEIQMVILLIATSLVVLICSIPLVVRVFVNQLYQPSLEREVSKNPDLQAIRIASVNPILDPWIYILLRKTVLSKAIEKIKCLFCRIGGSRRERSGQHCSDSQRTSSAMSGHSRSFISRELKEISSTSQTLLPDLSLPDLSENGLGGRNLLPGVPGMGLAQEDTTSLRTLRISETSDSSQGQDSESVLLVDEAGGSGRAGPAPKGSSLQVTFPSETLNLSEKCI

For Cc1ccc(S(=O)(=O)NC(=O)NN2CCCCCC2)cc1 [tolazamide], the “antagonist activity at the PGF2α (FP) receptor” value (“antagonist activity at the PGF2α” below) (PGF2α receptor) is given as “very weak antagonists”.

With prostaglandin F2α [PGF2α] the “concentration at which maximal InsP mobilisation was observed” value (human endometrium) was 100 nM, the “total InsP, maximum” value (Ishikawa cells [1]) was 29 cpm/mg protein and the “fold increase in phosphorylated ERK intensity compared to native ERK” value (Ishikawa cells [2]) was 6.6±0.7 fold. For the same molecule, the “proliferation by PGF2α” value (HCT-8) was “lack of proliferation” and the “proliferation by PGF2α” value (HT-29) was “lack of proliferation”.

In the case of O=C(O)CCC/C=C\C[C@@H]1[C@@H](/C=C/[C@H](O)C2Cc3ccccc3C2)[C@@H](F)C[C@@H]1O [AL-8810, (5Z, 13E)-(9S,11S,15R)-9,15-dihydroxy-11-fluoro-15-(2-indanyl)-16,17,18,19,20-pentanor-5,13-prostadienoic acid], the “inhibition of functional responses of TP” value (TP) is listed as “not to significantly inhibit”, the “inhibition of functional responses of DP” value (DP) is listed as “not to significantly inhibit” and the “inhibition of functional responses of EP2” value (EP2) is listed as “not to significantly inhibit”. For the same molecule, the “inhibition of functional responses of EP4” value (EP4) was “not to significantly inhibit”, the “FP receptor antagonist potency” value (PGF2α receptor) was “micromolar” and the “agonist activity at the PGF2α (FP) receptor” value (PGF2α receptor) was “weak partial agonist”. For the same molecule, the “antagonist activity at the PGF2α” value (PGF2α receptor) was “highly selective antagonist”.

For CCCCNC(=O)NS(=O)(=O)c1ccc(C)cc1 [tolbutamide], the “antagonist activity at the PGF2α” value (PGF2α receptor) is listed as “very weak antagonists”.

With COc1ccc2c(c1)CC[C@@H]1[C@@H]2CC[C@]2(C)[C@@H](NCCCCCCN3C(=O)C=CC3=O)CC[C@@H]12 [U73122] the “basal proliferation after pre-incubation with inhibitor” value (Ishikawa cells [3]) was 93.9±1.9%.

In the case of CCCCC(F)[C@H](O)/C=C/[C@H]1CC[C@H](O)[C@@H]1C/C=C\CCCC(=O)O (stereo partly drawn) [AL-3138, 11-deoxy-16-fluoro PGF2α], the “agonist activity at the PGF2α (FP) receptor” value (PGF2α receptor) is given as “weak partial agonist; also recorded: partial agonist of low efficacy” and the “antagonist activity at the PGF2α” value (PGF2α receptor) is given as “highly selective antagonist”.
